This note sets out measurements from ChEMBL document CHEMBL3046742, “Isolation and anxiolytic activity of 3,4-bis(3,4-dimethoxyphenyl)furan-2,5-dione from the ethanolic extract of heart wood of Cedrus deodara” (2012).

Activity calls are given as the source filed them. No cut-off for these calls is given here.

In test [1] the test system is Mus musculus. Kind of test: Anxiolytic activity in Mus musculus Swiss albino (mouse) assessed as increase in time spent in light zone at 100 mg/kg, po administered 1 hr prior to testing measured for 5 min by light-dark test (reference value: 64 +/- 4.02 secs). The format is functional.
Test [2] has as its system Mus musculus. Kind of test: Anxiolytic activity in Mus musculus Swiss albino (mouse) assessed as decrease in immobility duration at 2 mg/kg, po administered 1 hr prior to testing measured for 5 min by light-dark test relative to control. On the set-up: dose 2 mg/kg. Type of test: functional, organism-based.
The test system of test [3] is Mus musculus. Briefly: Anxiolytic activity in Mus musculus Swiss albino (mouse) assessed as increase in time spent in light zone at 10 mg/kg, po administered 1 hr prior to testing measured for 5 min by light-dark test (reference value: 64 +/- 4.02 secs). Type of test: functional.
The subject of test [4] is Mus musculus. Briefly: Anxiolytic activity in Mus musculus Swiss albino (mouse) assessed as increase in time spent in open arms at 30 mg/kg, po administered 1 hr prior to testing measured for 5 min by plus-maze test (reference value: 23 +/- 1.63 secs). The format is functional.
Test [5] deals with Mus musculus. Kind of test: Anxiolytic activity in Mus musculus Swiss albino (mouse) assessed as time spent in neutral zone at 100 mg/kg, po administered 1 hr prior to testing measured for 5 min by plus-maze test (reference value: 70 +/- 5.63 secs). Type of test: functional.
The test system of test [6] is Mus musculus. Kind of test: Anxiolytic activity in Mus musculus Swiss albino (mouse) assessed as increase in time spent in open arms at 100 mg/kg, po administered 1 hr prior to testing measured for 5 min by plus-maze test (reference value: 23 +/- 1.63 secs). The format is functional.
Test [7] relates to Mus musculus. Briefly: Anxiolytic activity in Mus musculus Swiss albino (mouse) assessed as time spent in neutral zone at 30 mg/kg, po administered 1 hr prior to testing measured for 5 min by plus-maze test (reference value: 70 +/- 5.63 secs). Type of test: functional.
Test [8] has as its system Mus musculus. Kind of test: Anxiolytic activity in Mus musculus Swiss albino (mouse) assessed as increase in ambulation at 100 mg/kg, po administered 45 min prior to testing measured for 5 min by open-field test relative to control. On the set-up: dose 100 mg/kg. Type of test: functional, organism-based.
In test [9] the test system is Mus musculus. Kind of test: Anxiolytic activity in Mus musculus Swiss albino (mouse) assessed as increase in ambulation at 200 to 400 mg/kg, po administered 45 min prior to testing measured for 5 min by open-field test relative to control. Type of test: functional, organism-based.
The test system of test [10] is Mus musculus. Kind of test: Anxiolytic activity in Mus musculus Swiss albino (mouse) assessed as time spent in neutral zone at 10 mg/kg, po administered 1 hr prior to testing measured for 5 min by plus-maze test (reference value: 70 +/- 5.63 secs). The format is functional.
For test [11], the system named is Mus musculus. Kind of test: Anxiolytic activity in Mus musculus Swiss albino (mouse) assessed as increase in time spent in light zone at 30 mg/kg, po administered 1 hr prior to testing measured for 5 min by light-dark test (reference value: 64 +/- 4.02 secs). The format is functional.
Test [12] concerns Mus musculus. Briefly: Anxiolytic activity in Mus musculus Swiss albino (mouse) assessed as increase in time spent in open arms at 10 mg/kg, po administered 1 hr prior to testing measured for 5 min by plus-maze test (reference value: 23 +/- 1.63 secs). Type of test: functional.
Test [13] relates to Mus musculus. Briefly: Anxiolytic activity in Mus musculus Swiss albino (mouse) assessed as time spent in neutral zone at 2 mg/kg, po administered 1 hr prior to testing measured for 5 min by plus-maze test (reference value: 70 +/- 5.63 secs). The format is functional.
The test system of test [14] is Mus musculus. Kind of test: Anxiolytic activity in Mus musculus Swiss albino (mouse) assessed as increase in ambulation at 2 mg/kg, po administered 45 min prior to testing measured for 5 min by open-field test relative to control. The format is functional, organism-based. Set-up: dose 2 mg/kg.
Test [15] relates to Mus musculus. Kind of test: Anxiolytic activity in Mus musculus Swiss albino (mouse) assessed as increase in time spent in open arms at 2 mg/kg, po administered 1 hr prior to testing measured for 5 min by plus-maze test (reference value: 23 +/- 1.63 secs). Type of test: functional.
The subject of test [16] is Mus musculus. Briefly: Anxiolytic activity in Mus musculus Swiss albino (mouse) assessed as increase in time spent in light zone at 2 mg/kg, po administered 1 hr prior to testing measured for 5 min by light-dark test (reference value: 64 +/- 4.02 secs). Type of test: functional.

`COc1ccc(C2=C(c3ccc(OC)c(OC)c3)C(=O)OC2=O)cc1OC`: the Time was determined as 145 s in the test with Mus musculus [1]; 95 s with Mus musculus [3]; 110 s in the test on Mus musculus [4]; 29 s with Mus musculus [5]; 151 s in the test with Mus musculus [6]; 45 s with Mus musculus [7]. Also, the Time in the test with Mus musculus [10] stood at 65 s; with Mus musculus [11] it was 120 s; in the test on Mus musculus [12], 66 s. Besides, the outcome with Mus musculus [2] and in the test on Mus musculus [8] was Active. In addition, the outcome in the test with Mus musculus [9] was inactive.

In the case of `CN1C(=O)CN=C(c2ccccc2)c2cc(Cl)ccc21` [DIAZEPAM], the figures for the Time with Mus musculus [13], in the test with Mus musculus [15] and with Mus musculus [16] were 32 s, 166 s and 171 s, respectively. Further, the outcome in the test with Mus musculus [14] was Active.
